What was measured:
[1] = target: T1, androgen receptor (AR) (Homo sapiens, UniProt P10275); assay: Antagonism of compounds on nuclear translocation of androgen receptor (PathHunter NHR cell lines); format: cell-based; conditions: antagonist mode, agonist 6a-Fluorotestosterone 0.06 μM (EC80)
T1 sequence (P10275 1-920): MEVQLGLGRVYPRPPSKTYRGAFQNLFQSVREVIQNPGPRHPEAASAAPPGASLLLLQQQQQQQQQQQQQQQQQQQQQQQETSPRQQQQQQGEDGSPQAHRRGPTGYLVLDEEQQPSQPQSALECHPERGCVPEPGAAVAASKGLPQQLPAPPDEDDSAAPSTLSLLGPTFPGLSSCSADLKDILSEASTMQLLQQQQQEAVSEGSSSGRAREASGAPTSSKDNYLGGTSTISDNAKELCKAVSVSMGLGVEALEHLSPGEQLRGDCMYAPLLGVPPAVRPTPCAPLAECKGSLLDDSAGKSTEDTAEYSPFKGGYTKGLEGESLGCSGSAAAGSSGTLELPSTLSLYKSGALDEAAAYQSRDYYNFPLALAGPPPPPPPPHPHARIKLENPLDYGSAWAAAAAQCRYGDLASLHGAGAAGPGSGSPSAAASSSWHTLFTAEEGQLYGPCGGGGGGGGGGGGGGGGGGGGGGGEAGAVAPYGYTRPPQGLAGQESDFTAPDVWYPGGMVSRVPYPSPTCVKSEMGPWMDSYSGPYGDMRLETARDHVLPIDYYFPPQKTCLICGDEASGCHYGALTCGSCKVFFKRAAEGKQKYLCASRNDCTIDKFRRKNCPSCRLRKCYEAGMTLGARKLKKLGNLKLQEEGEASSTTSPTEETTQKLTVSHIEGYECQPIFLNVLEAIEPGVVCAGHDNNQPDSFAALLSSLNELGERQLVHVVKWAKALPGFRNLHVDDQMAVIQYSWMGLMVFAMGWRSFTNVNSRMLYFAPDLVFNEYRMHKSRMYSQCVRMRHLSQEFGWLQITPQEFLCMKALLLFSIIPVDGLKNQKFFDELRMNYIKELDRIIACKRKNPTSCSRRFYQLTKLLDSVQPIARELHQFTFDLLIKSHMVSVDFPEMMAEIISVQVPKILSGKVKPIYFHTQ
Method: Example 75 Test of Antagonism of Compounds on Nuclear Translocation of Androgen Receptor (AR)
1. PathHunter NHR cell lines were recovered and cultured for amplification.
2. The cells were inoculated onto a 384-well plate prior to testing, and incubated at 37° C. The serum for culture was filtered with charcoal-dextran to reduce the hormone level therein.
3. In the detection of the antagonistic function, a compound was added to the cells and incubated for 60 min. The working concentration of the test compound was diluted from 10 μM at a 3-fold concentration gradient, respectively including: […]. Then, an agonist 6a-Fluorotestosterone 0.06 μM (concentration: EC80, i.e., 80% agonistic compound concentration) was added, and the mixture was incubated at 37° C. or at room temperature for 3-16 h.
4. Signal detection: 12.5 μL or 15 μL (50%, v/v) PathHunter detection mixed solution (kit: DiscoverX product catalog number: 93-0001 series) was added, and incubated at room temperature for 1 h. The chemiluminescent signal was read with a PerkinElmer Envision™ instrument.
5. Data analysis: The compound activity was analyzed with CBIS data analysis software (ChemInnovation, CA). The calculation formula of the inhibition percent of the antagonist is as follows: IC50 inhibition ratio (%)=[…]×(1−(average RLU value of the test compound−average RLU value of the blank control group)/(average RLU value of EC80 control group−average RLU value of the blank control group)).

[2] = Tissue distribution test of Compound 27 and Compound 10 (plasma and brain); format: in vivo; conditions: intragastric 2 mg/kg, 2 h after administration, male CD-1 mice
Method: Taking male CD-1 mice as test animals, drug concentrations in plasma and brain after intragastric administration of Compound 27 and Compound 10 to the mice were determined by the LC/MS/MS method, respectively.
2.2 Test Animals: Six healthy adult male CD-1 mice were divided into 2 groups, with 3 mice in each group, according to the principle of similar body weight. The animals were purchased from Shanghai Super-BK Laboratory Animal Co., Ltd., with Animal Production License No.: SCXK (Shanghai) 2013-0016.
An appropriate amount of sample was weighed, and an appropriate amount of DMSO, PEG400 and water were added successively at a volume ratio of 10:40:50. After stirring and ultrasonic processing, the resulting mixture reached a clear solution state of 0.4 mg/mL.
Six male CD-1 mice were divided into 2 groups, fasted overnight, and intragastrically administered at an administration volume of 5 mL/kg in a dose of 2 mg/kg.
After Compound 27 and Compound 10 were intragastrically administered to the male CD-1 mice, 100 μL of blood was collected by cardiac puncture at 2 h, placed in a test tube containing 2 μl of EDTA-K2, and centrifuged at 3000 g for 15 min to separate 50 μL of plasma, which was stored at −60° C. Meanwhile, brain tissues were collected, washed, then homogenized with 5-fold 15 mM PBS/MeOH (v:v, 2:1), and stored at −60° C. The animals were allowed to eat 2 hours after administration.
After intragastric administration to the mice, the content of the test compound in plasma and brain was determined by the LC/MS/MS method. The linear range of the method was 2.00-6000 nmol/L; and the plasma samples were analyzed after the treatment with acetonitrile precipitated protein.

[3] = test system: Human prostate cancer LNCaP-FGC cells; assay: In vivo pharmacodynamic study on subcutaneous xenograft tumor model of human prostate cancer LNCaP-FGC cells; set-up: species or system CB-17 SCID mice; conditions: 50 mg/kg PO QD, after 21 days of administration, vs solvent control
Method: 2.1 Experimental Animals • Species: Mice • Strain: CB-17 SCID mice • Week age and body weight: 6-8 weeks old, 18-22 g body weight • Gender: male • Supplier: Beijing Vital River Laboratory Animal Technology Co., Ltd • Animal Certificate No.: 11400700184227 3. Experimental Method and Steps 3.1 Cell Culture
Human prostate cancer LNCaP-FGC cells (ATCC, Manassas, Virginia) were cultured in vitro monolayers under the culture conditions of RPM11640 medium supplemented with […] fetal bovine serum at 37° C. with 5% CO2. Routine digestion treatment with trypsin-EDTA was performed twice a week for passage. When the cell saturation was 80%-90%, the cells were collected, counted, and inoculated.
0.2 mL (10×10^6) of LNCaP-FGC cells (10×10^6+Matrigel, 1:1) was inoculated subcutaneously to the right back of each CB-17 SCID mouse. When the average tumor volume reached 100-150 mm^3, administration in groups was started.
The tumor diameters were measured with a vernier caliper twice a week. The calculation formula of the tumor volume is: V=0.5a×b^2, wherein a and b represent the long diameter and the short diameter of the tumor, respectively. The antitumor efficacy of the compounds were evaluated by TGI (%) or a relative tumor proliferation rate T/C (%). TGI(%)=[(1−(average tumor volume of a treatment group at the end of drug administration−average tumor volume of the treatment group at the beginning of drug administration))/(average tumor volume of the vehicle control group at the end of treatment−average tumor volume of the vehicle control group at the beginning of treatment)]×100%. The calculation formula of the relative tumor proliferation rate T/C (%) is as follows: T/C %=TRTV/CRTV×100% (TRTV: RTV of a treatment group; CRTV: RTV of a negative control group). The relative tumor volume (RTV) is calculated based on the tumor measurement results, and the calculation formula is RTV=Vt/V0, wherein V0 is the average tumor volume measured at the time of administration in groups (i.e., do), Vt is the average tumor volume at one measurement, and TRTV and CRTV are the data obtained on the same day.
The statistical analysis includes mean and standard error of mean (SEM) of the tumor volume at each time point for each group. […] The comparison between two groups was analyzed by T-test, and the comparison between three or more groups was analyzed by one-way ANOVA. If there was a significant difference in the F value, the Games-Howell method was used for testing. If there was no significant difference in the F value, the Dunnet (2-sided) method was used for analysis. All data analysis was performed by using SPSS 17.0. “p<0.05” was considered a significant difference.

Compound | IC50 [1] | also measured
CCc1nc(OCCO)c2cc(N3C(=S)N(c4ccc(C#N)c(C(F)(F)F)c4)C(=O)C3(C)C)ccc2n1 [Compound 27] | 2210 nM | Concentration in Brain [2]: 85.2 ± 21.9 nmol/kg; Kp at 2 h ([2]; mouse, brain / plasma, oral, read-out: Brain to Blood Ratio): 0.00917 ± 0.0004; concentration at 2 h ([2]; mouse, plasma, oral): 9.25 ± 2.11 µM; TGI [3]: 51.0%; relative tumor proliferation rate T/C [3]: 53.1%
CCc1cc(=O)n2cc(N3C(=S)N(c4ccc(C#N)c(C(F)(F)F)c4)C(=O)C3(C)C)ccc2n1 [Compound 30] | 2540 nM | 
COCc1cc(=O)n2cc(N3C(=S)N(c4ccc(C#N)c(C(F)(F)F)c4)C(=O)C3(C)C)cc(F)c2n1 [Compound 69] | 4000 nM | 
CCc1cc(=O)n2cc(N3C(=S)N(c4cnc(C#N)c(C(F)(F)F)c4)C(=O)C3(C)C)cc(F)c2n1 [Compound 53] | 2110 nM | 
CCc1nc(OCC2COC2)c2cc(N3C(=S)N(c4ccc(C#N)c(C(F)(F)F)c4)C(=O)C3(C)C)cc(F)c2n1 [Compound 29] | 830 nM | 
CCc1cc(=O)n2cc(N3C(=S)N(c4ccc(C#N)c(C(F)(F)F)c4)C(=O)C34CCC4)cc(F)c2n1 [Compound 54] | 2500 nM | 
COc1nc(OCCO)c2cc(N3C(=S)N(c4cnc(C#N)c(C(F)(F)F)c4)C(=O)C3(C)C)cc(F)c2n1 [Compound 73] | 2130 nM | 
CCc1nc(OCCO)c2cc(N3C(=S)N(c4ccc(C#N)c(C(F)F)c4)C(=O)C3(C)C)cc(F)c2n1 [Compound 50] | 3450 nM | 
CCc1nc2c(F)cc(N3C(=S)N(c4ccc(C#N)c(C(F)(F)F)c4)C(=O)C3(C)C)cn2c(=O)c1OC [Compound 34] | 3230 nM | 
CCc1nc2ccc(N3C(=S)N(c4ccc(C#N)c(C(F)(F)F)c4)C(=O)C3(C)C)cn2c(=O)c1OC [Compound 31] | 3800 nM | 
CC1(C)C(=O)N(c2ccc(C#N)c(C(F)(F)F)c2)C(=S)N1c1ccc2c(=O)n(CC(F)(F)F)cnc2c1 [Compound 5] | 3650 nM | 
CCc1nc2ccc(N3C(=S)N(c4ccc(C#N)c(C(F)(F)F)c4)C(=O)C3(C)C)cn2c(=O)c1OCCO [Compound 38] | 3580 nM | 
CC1(C)C(=O)N(c2ccc(C#N)c(C(F)(F)F)c2)C(=S)N1c1ccc2ncnc(OCCO)c2c1 [Compound 12] | 3260 nM | 
CCOc1cc(=O)n2cc(N3C(=S)N(c4cnc(C#N)c(C(F)(F)F)c4)C(=O)C3(C)C)cc(F)c2n1 [Compound 64] | 2810 nM | 
CCc1cc(=O)n2cc(N3C(=S)N(c4cnc(C#N)c(Cl)c4)C(=O)C3(C)C)cc(F)c2n1 [Compound 75] | 920 nM | 
CCc1nc(OCC(=O)NC)c2cc(N3C(=S)N(c4ccc(C#N)c(C(F)(F)F)c4)C(=O)C3(C)C)cc(F)c2n1 [Compound 28] | 8880 nM | 
COCCOc1cc(=O)n2cc(N3C(=S)N(c4ccc(C#N)c(C(F)(F)F)c4)C(=O)C3(C)C)cc(F)c2n1 [Compound 65] | 2090 nM | 
CC1(C)C(=O)N(c2ccc(C#N)c(C(F)(F)F)c2)C(=S)N1c1cc(F)c2nc(C(F)F)cc(=O)n2c1 [Compound 62] | 1690 nM | 
COc1cc(=O)n2cc(N3C(=S)N(c4ccc(C#N)c(C(F)(F)F)c4)C(=O)C3(C)C)cc(F)c2n1 [Compound 68] | 1910 nM | 
